# According to ChEMBL document CHEMBL1155854, “Conformationally constrained farnesoid X receptor (FXR) agonists: Naphthoic acid-based analogs of GW 4064” (Bioorg Med Chem Lett, 2008):
# How the values were obtained:
# [1] = target: T1, Bile acid receptor (Homo sapiens) (UniProt Q96RI1); experiment: Agonist activity at FXR assessed as receptor-SRC-1 peptide interaction by FRET assay relative to GW-4064; format: functional
# T1 sequence (whole entry): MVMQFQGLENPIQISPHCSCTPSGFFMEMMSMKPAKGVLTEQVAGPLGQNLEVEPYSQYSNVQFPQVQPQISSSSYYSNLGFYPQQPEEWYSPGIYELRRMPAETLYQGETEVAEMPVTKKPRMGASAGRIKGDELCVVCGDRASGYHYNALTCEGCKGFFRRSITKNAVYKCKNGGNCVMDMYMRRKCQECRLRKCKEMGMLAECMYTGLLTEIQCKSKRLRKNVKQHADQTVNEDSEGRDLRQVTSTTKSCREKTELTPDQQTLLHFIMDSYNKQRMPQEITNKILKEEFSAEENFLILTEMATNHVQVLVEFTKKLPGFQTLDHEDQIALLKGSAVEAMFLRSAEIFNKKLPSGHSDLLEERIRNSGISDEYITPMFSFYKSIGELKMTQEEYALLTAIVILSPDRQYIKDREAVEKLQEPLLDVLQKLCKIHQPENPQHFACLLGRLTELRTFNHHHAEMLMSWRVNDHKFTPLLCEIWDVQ
# Bile acid receptor [2] = target: T2, Bile acid receptor (Homo sapiens, UniProt Q96RI1); experiment: Agonist activity at FXR expressed in african green monkey CV1 cells by luciferase reporter transient transfection assay; format: functional, cell-based, CV-1
# T2 sequence (Q96RI1 whole entry): T1 sequence (whole entry)
# [3] = target: T1, Bile acid receptor (Homo sapiens); experiment: Agonist activity at FXR expressed in african green monkey CV1 cells by luciferase reporter transient transfection assay relative to GW-4064; format: functional, cell-based; details: CV-1
# Bile acid receptor [4] = target: T2, Bile acid receptor; experiment: Agonist activity at FXR assessed as receptor-SRC-1 peptide interaction by FRET assay; format: functional
%max [1],EC50 (Bile acid receptor [2]),%max [3],EC50 (Bile acid receptor [4]),SMILES
90%,45 nM,87%,100 nM,CC(C)c1onc(-c2c(Cl)cccc2Cl)c1COc1ccc(-c2ccc3cc(C(=O)O)ccc3c2)cc1
69%,500 nM,90%,420 nM,CC(C)c1onc(-c2c(Cl)cccc2Cl)c1COc1ccc(-c2ccc3ccc(C(=O)O)cc3c2)cc1
52%,3300 nM,27%,2300 nM,CC(C)c1onc(-c2c(Cl)cccc2Cl)c1COc1ccc(-c2ccc3cccc(C(=O)O)c3c2)cc1
